This note sets out measurements from ChEMBL document CHEMBL3352400, “4-Functionalized 1,3-diarylpyrazoles bearing 6-aminosulfonylbenzothiazole moiety as potent inhibitors of carbonic anhydrase isoforms hCA I, II, IX and XII” (Bioorg Med Chem, 2014).

Each structure is given as a SMILES string. pKi: −log10 of the molar value. Where only a bound is given, the exact number is not on record here.

The target of assay [1] is Carbonic anhydrase 9 (Homo sapiens, UniProt Q16790). The experiment in a line: Inhibition of human carbonic anhydrase 9 by stopped flow CO2 hydrase assay method.
In assay [2] the target is Carbonic anhydrase 12 (Homo sapiens, UniProt O43570). Kind of assay: Inhibition of human carbonic anhydrase 12 by stopped flow CO2 hydrase assay method.
Chain of Carbonic anhydrase 12 (O43570 whole entry): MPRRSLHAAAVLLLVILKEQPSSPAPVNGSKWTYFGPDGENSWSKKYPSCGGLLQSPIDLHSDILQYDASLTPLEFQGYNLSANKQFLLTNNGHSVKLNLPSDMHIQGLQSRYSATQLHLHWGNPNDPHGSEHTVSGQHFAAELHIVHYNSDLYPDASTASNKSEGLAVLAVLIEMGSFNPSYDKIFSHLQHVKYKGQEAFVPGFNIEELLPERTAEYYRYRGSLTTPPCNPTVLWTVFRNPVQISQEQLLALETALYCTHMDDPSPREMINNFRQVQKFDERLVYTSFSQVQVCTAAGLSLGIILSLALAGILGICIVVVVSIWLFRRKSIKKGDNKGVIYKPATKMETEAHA
Assay [3] has as its target Carbonic anhydrase 1 (Homo sapiens, UniProt P00915). The experiment in a line: Inhibition of human carbonic anhydrase 1 by stopped flow CO2 hydrase assay method.

Chain of Carbonic anhydrase 1 (P00915 whole entry): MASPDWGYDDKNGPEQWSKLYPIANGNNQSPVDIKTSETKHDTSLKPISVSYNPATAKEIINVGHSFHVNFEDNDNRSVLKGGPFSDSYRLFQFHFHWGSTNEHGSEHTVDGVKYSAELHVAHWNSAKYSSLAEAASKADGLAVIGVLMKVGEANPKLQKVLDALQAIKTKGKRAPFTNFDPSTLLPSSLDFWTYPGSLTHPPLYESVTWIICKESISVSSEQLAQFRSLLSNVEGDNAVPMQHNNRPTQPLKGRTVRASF

Turning to `Cc1ccc(-c2nn(-c3nc4ccc(S(N)(=O)=O)cc4s3)cc2C(=O)O)cc1`, the negative-log Ki (pKi) (in general, the Ki on a negative log10 scale, so that one unit is a factor of ten) in assay [1] was 6.96. As for `NS(=O)(=O)c1ccc2nc(-n3cc(C=O)c(-c4ccccc4)n3)sc2c1`, the pKi in assay [1] is 5.76. On the same count and under the same terms, next, `Cc1ccc(-c2nn(-c3nc4ccc(S(N)(=O)=O)cc4s3)cc2C=O)cc1`: 6.16. On the same count and under the same terms, the result for `COc1ccc(-c2nn(-c3nc4ccc(S(N)(=O)=O)cc4s3)cc2C=O)cc1` reads 6.64. `NS(=O)(=O)c1ccc2nc(-n3cc(C=O)c(-c4ccc(F)cc4)n3)sc2c1` had a negative-log Ki (pKi) in assay [2] of less than 5.00. Molecule `NS(=O)(=O)c1ccc2nc(-n3cc(C=O)c(-c4ccc(Cl)cc4)n3)sc2c1` showed a pKi in assay [1] of 5.77. The same measure, in the same setting: the result for `NS(=O)(=O)c1ccc2nc(-n3cc(C=O)c(-c4ccc([N+](=O)[O-])cc4)n3)sc2c1` reads 5.68. On the same count and under the same terms, next, `NS(=O)(=O)c1ccc2nc(-n3cc(C(=O)O)c(-c4ccccc4)n3)sc2c1`: 6.12. For `COc1ccc(-c2nn(-c3nc4ccc(S(N)(=O)=O)cc4s3)cc2C(=O)O)cc1`, the pKi in assay [1] is 6.07. On to `NS(=O)(=O)c1ccc2nc(-n3cc(C(=O)O)c(-c4ccc(F)cc4)n3)sc2c1`, for which, in assay [1], the negative-log Ki (pKi) is 7.20. The same measure, in the same setting: next, `NS(=O)(=O)c1ccc2nc(-n3cc(C(=O)O)c(-c4ccc(Cl)cc4)n3)sc2c1`: 8.55; `NS(=O)(=O)c1ccc2nc(-n3cc(C(=O)O)c(-c4ccc([N+](=O)[O-])cc4)n3)sc2c1`: 7.22. Same read-out and setting: next, `N#Cc1cn(-c2nc3ccc(S(N)(=O)=O)cc3s2)nc1-c1ccccc1`: 7.09. Turning to `Cc1ccc(-c2nn(-c3nc4ccc(S(N)(=O)=O)cc4s3)cc2C#N)cc1`, the negative-log Ki (pKi) is less than 4.30 in assay [3] and 6.73 in assay [1]. The like results for `COc1ccc(-c2nn(-c3nc4ccc(S(N)(=O)=O)cc4s3)cc2C#N)cc1` were, in that order, less than 4.30 and 6.95.

Turning to `N#Cc1cn(-c2nc3ccc(S(N)(=O)=O)cc3s2)nc1-c1ccc(F)cc1`, the negative logarithm of the Ki (pKi) in assay [1] was 6.13. For `N#Cc1cn(-c2nc3ccc(S(N)(=O)=O)cc3s2)nc1-c1ccc(Cl)cc1`, the negative-log Ki (pKi) in assay [3] was less than 4.30; in assay [1], 6.65. Taken in the same sequence, the figures for `N#Cc1cn(-c2nc3ccc(S(N)(=O)=O)cc3s2)nc1-c1ccc([N+](=O)[O-])cc1` were less than 4.30 and 6.07. In assay [1], `NS(=O)(=O)c1ccc2nc(-n3cc(/C=N/O)c(-c4ccccc4)n3)sc2c1` had a negative-log Ki (pKi) of 6.94. The same measure, in the same setting: the result for `Cc1ccc(-c2nn(-c3nc4ccc(S(N)(=O)=O)cc4s3)cc2/C=N/O)cc1` reads 6.87. For `COc1ccc(-c2nn(-c3nc4ccc(S(N)(=O)=O)cc4s3)cc2/C=N/O)cc1`, the negative-log Ki (pKi) in assay [3] was less than 4.30; in assay [1], 7.04. The molecule `NS(=O)(=O)c1ccc2nc(-n3cc(/C=N/O)c(-c4ccc(F)cc4)n3)sc2c1` had a negative logarithm of the Ki (pKi) in assay [1] of 6.65.

Regarding `NS(=O)(=O)c1ccc2nc(-n3cc(/C=N/O)c(-c4ccc(Cl)cc4)n3)sc2c1`, the pKi in assay [1] is 6.82.
